Data as given in patent US20260248787A9, “MEDICAMENT FOR TREATING CANCER COMPRISING OPTICALLY ACTIVE AZABICYCLO RING DERIVATIVE” (Sumitomo Pharma Co., Ltd., priority 2023, published 2026).

What was measured:
[1] = Phase 1/2 clinical study, plasma pharmacokinetic evaluation; format: in vivo; conditions: human, oral, 140 mg, Cycle 1 Day 1, 140 mg BID Arm B (with azole), N=2, mean
MOLM-13 cells [2] = assay: Tumor-bearing mice transplanted with MOLM-13 cells, with venetoclax and azacitidine, T/C (Example 10); format: in vivo; conditions: MOLM-13 tumor-bearing mice, oral, 15 days
Protocol: The present compound was weighed and dissolved in 0.5 w/v % Methyl Cellulose 400 solution to give the compound concentrations of 20 mg/mL and 10 mg/mL. Venetoclax was weighed and suspended in a mixed solution of Phosal 50 propylene glycol (60%)/Polyethylene glycol-400 (30%)/Ethanol (10%) to give the compound concentration of 5 mg/mL. Azacitidine was weighed and dissolved in saline to give the compound concentration of 0.3 mg/mL.
MOLM-13 cells (DSMZ) were intradermally implanted around the ventral region of 5-week old NOD. CB17-PrkdcSCID/J mice (female, The Jackson Laboratory Japan) at 1×10^6 cells/mouse. […] The tumor volume was measured over time from the start of the administration, and the reduction effect of the tumor volume due to the compound-administration was evaluated. The tumor volume was calculated by the following formula using short axis and long axis of the tumor measured with an electronic caliper (Mitutoyo).
(§1) The control administration group in which only the solvent was administered and the test substance administration group were compared, and T/C was calculated using the following formula to evaluate the antitumor effect.

MOLM-13 cells [3] = assay: Tumor-bearing mice transplanted with MOLM-13 cells, with gilteritinib, T/C (Example 12); format: in vivo; conditions: MOLM-13 tumor-bearing mice, oral, 18 days
Protocol: The antitumor effects of the present compound and gilteritinib were evaluated. The present compound was weighed and dissolved in 0.5 w/v % Methyl Cellulose 400 solution to give the compound concentrations of 20 mg/mL and 10 mg/mL. Gilteritinib was weighed and suspended in 0.5 w/v % Methyl Cellulose 400 solution to give the compound concentrations of 3 mg/mL.
MOLM-13 cells (DSMZ) were intradermally implanted around the ventral region of 5-week old NOD. CB17-PrkdcSCID/J mice (female, The Jackson Laboratory Japan) at 1×10^6 cells/mouse. After confirming the engraftment of MOLM-13 cells 6 days after the transplantation, the present compound was orally administered to the mice at a dose of 100 mg/kg or 200 mg/kg, and gilteritinib was orally administered to the mice at a dose of 30 mg/kg, once a day for 18 days. The tumor volume was measured over time from the start of the administration, and the reduction effect of the tumor volume due to the compound-administration was evaluated. The tumor volume was calculated by the following formula using short axis and long axis of the tumor measured with an electronic caliper (Mitutoyo).
as §1

OCI-AML3 cells = assay: Tumor-bearing mice transplanted with OCI-AML3 cells, with cytarabine and daunorubicin, T/C (Example 14); format: in vivo; conditions: oral, 21 days
Protocol: (§2) Cytarabine (Cylocide Injection 200 mg/10 mL, Nippon Shinyaku Co., Ltd.) was diluted with saline (Otsuka Saline Injection, Otsuka Pharmaceutical Factory Co., Ltd.) to 8 mg/mL. Daunorubicin (Daunomycin for injection 20 mg, Meiji, Seika Pharma Co., Ltd.) was dissolved in saline (Otsuka Saline Injection, Otsuka Pharmaceutical Factory Co., Ltd.) to 0.2 mg/mL.
(§3) OCI-AML3 cells (DSMZ) were intradermally implanted around the ventral region of 7-week old NOD. CB17-PrkdcSCID/J mice (female, The Jackson Laboratory Japan) at 1×10^6 cells/mouse. […] Cytarabine was intraperitoneally administered to the mice at a dose of 80 mg/kg once a day for 5 days. Daunorubicin was intravenously administered to the mice at a dose of 1 mg/kg once a day for 3 days. The tumor volume was measured over time from the start of the administration, and the reduction effect of the tumor volume due to the compound-administration was evaluated. The tumor volume was calculated by the following formula using short axis and long axis of the tumor measured with an electronic caliper (Mitutoyo).
as §1

MOLM-13 cells [4] = assay: Tumor-bearing mice transplanted with MOLM-13 cells, with cytarabine and daunorubicin, T/C (Example 11); format: in vivo; conditions: MOLM-13 tumor-bearing mice, oral, 17 days
Protocol: as §2
as §3, with “MOLM-13” for “OCI-AML3”, “8-week” for “7-week”
as §1

[5] = human, in vivo
Protocol: Arm A: Patients without azole antifungal treatment within 7 days (or 21 days for isavuconazole) of first dose of the present compound
Arm B: Patients receiving posaconazole, voriconazole, or fluconazole antifungal prophylaxis at enrollment
The safety of each dose level also was evaluated by the SRC, which was comprised of all investigators participating in the study and selected Sponsor study team members. The dose recommended by the BLRM method was treated as guidance and was integrated with a clinical assessment of toxicity information and review of other available data, including safety, PK, pharmacodynamic, and laboratory data.
When the Dose Limiting Toxicity (DLT) evaluation for each cohort was completed, the SRC determined a next dose level based on the DLT and other available data, including safety, PK, pharmacodynamic, and laboratory data with reference to the Bayesian Logistic Regression Model (BLRM) recommendation.
Dose escalation decisions were made after all patients in a dose level cohort have at least completed Cycle 1. All available data were presented along with the BLRM predictions for toxicity probabilities at the potential next dose levels. The SRC then determined the dose(s) for the next cohort(s).

[6] = tested on: acute leukemia with MLLr or NPM1m; assay: Phase 1/2 clinical study, clinical activity (responses by ELN 2017); format: in vivo, human
Protocol: In the present test, signs of clinical activity have been observed, including decreases and normalization of bone marrow blasts, elimination of blasts in peripheral blood, and responses according to European LeukemiaNet 2017 Response Criteria. A patient with MLLr assigned to 120 mg BID in Arm A achieved MLFS (morphologic leukemia-free state), while a patient with MLLr assigned to 60 mg BID with azoles in Arm B achieved CRh (complete remission with partial hematological recovery) and CRi (complete remission with incomplete hematologic recovery). Substantial changes in several biomarkers have also been observed, including decreases in HOXA9, PBX3, and MEIS1, and increases in CD11b. These changes have been particularly notable in patients with MLLr or NPM1m.
(1) Of 43 patients enrolled, 17 patients had MLLr and 9 patients had NPM1m, with 19 evaluable at the time of data extraction and 5 responders per ELN 2017 (FIG. 7A). At 200 mg BID in Arm B, 4 evaluable patients had MLLr or NPM1m (n=1 and 3, respectively) and 1 patient achieved CRh/CRi, 1 patient achieved CRi, and 1 patient achieved MLFS. Two additional patients with MLLr also achieved response per ELN2017 at lower dose levels (CRh/CRi and MLFS).

[7] = 200 mg BID Arm B, 4 evaluable patients with MLLr or NPM1m

`C=C1C[C@@H]2CC[C@H]1[C@@H](C(=O)N1CCC3(CC1)CN(c1ncncc1Oc1ccc(F)cc1C(=O)N(C(C)C)C(C)C)C3)N2` [the present compound, 5-fluoro-2-[(4-{7-[(1S,3S,4R)-5-methylidene-2-azabicyclo[2.2.2]octane-3-carbonyl]-2,7-diazaspiro[3.5]nonan-2-yl}pyrimidin-5-yl)oxy]-N,N-di(propan-2-yl)benzamide] gave a Cmax [1] of 3100 ng/mL, a T/C (MOLM-13 cells [2]; 100 mg/kg) of 22.6% and a T/C (MOLM-13 cells [2]; 200 mg/kg) of 8.4%. The T/C (MOLM-13 cells [3]; 100 mg/kg) was 43.8%, the T/C (MOLM-13 cells [3]; 200 mg/kg) was 1.8% and the T/C (OCI-AML3 cells; 100 mg/kg) was 53.1%. The T/C (OCI-AML3 cells; 200 mg/kg) was 41.7%, the T/C (MOLM-13 cells [4]; 100 mg/kg) was 29.8% and the T/C (MOLM-13 cells [4]; 200 mg/kg) was 0.3%. The “SAE COVID-19, CTCAE Grade” value [5] was 3, the “patients who achieved CRh/CRi” value [6, 7] was 1 patient and the “patients who achieved CRi” value [6, 7] was 1 patient. The “patients who achieved MLFS” value [6, 7] was 1 patient and the “response achieved (ELN 2017)” value ([6]; a patient with MLLr, 60 mg BID with azoles Arm B) was “CRh and CRi”.
